Reference: patent publication US20130004581A1, “CONTROLLING UPTAKE BY CELLS” (Ramot at Tel-Aviv University Ltd., priority 2010, published 2013)

Key:
[1] = tested on: HaCaT cells; assay: Proton induced uptake (PIU) in HaCaT cells, FACS; assay type: cell-based, human; conditions: pH 5.25; pulse label for last 5 minutes
Experimental: FIG. 6 is a chart showing PIU of molecules different by size and charge, in accordance with some embodiments of the invention. Hacat cultures were exposed to solutions of pH 5.2 or pH 7.4 for 5 minutes period, in the presence of different fluorescence molecules (All at 25 μM concentration). FACS analysis results (FL1, geometrical mean±SD) for the cell cultures exposed to pH 5.2 are presented as fold induction relative to results obtained for cells exposed to pH 7.4. This can be used, in some embodiments of the invention, to assess effect of molecule size and charge on uptake.
FIGS. 7A-7B are charts showing the comparison of PIU in adherent and suspended HaCaT cells, in accordance with some embodiments of the invention. For FIG. 7A, HaCaT cells were tested either at their adherent state, or following harvest at a suspended state. […] FACS analyses (FL1) in terms of geometrical mean±SD are presented as fold induction relative to the constitutive uptake at physiological pH 7.4. n=9 in 3 independent experiments. For FIG. 7B, HaCaT Cells were cultivated at low, medium or high cell density. […] The cultures were harvested and undergone FACS analyses (FL1) in terms of geometrical mean±SD and are presented as fold induction relative to the constitutive uptake of low density cultures. Statistical significance was tested against the confluent culture, n=9 in 3 independent experiments. In the charts, * indicates a t-test p<0.05; and ** indicates a t-test p<0.01. This can be used, in some embodiments of the invention, to assess effect of cell membrane rigidity and/or tissue structure on uptake.
FIGS. 12A-12B are a chart and images which show the relative change of PIU by modifiers of actin cytoskeleton organization, in accordance with some embodiments of the invention. […].

[2] = tested on: COS 5-7 cells; assay: Proton induced uptake (PIU) in adherent COS 5-7 cultures, 5 minutes, FACS; assay type: cell-based, African green monkey; conditions: pH 5, P<0.001
Description: Uptake, based on flow cytometry, is plotted as function of the external pH from 3 independent experiments per cell line.
FIG. 1A is shown the Extent of uptake in terms of FITC intensity geometrical mean±SD is presented as fold induction relative to the constitutive uptake at physiological pH 7.4. In FIG. 1B is shown the PI (a necrotic cell marker) stained cells fraction±SD (%) relative to unexposed control population. In FIG. 1C is shown the FITC geometrical mean±SD presented as fold induction relative to the constitutive uptake at physiological pH 7.4.

[3] = tested on: erythrocytes (RBCs); assay: Proton induced uptake and efflux in erythrocytes (RBCs), flow cytometry; assay type: cell-based
Experimental: As shown, PIU in erythrocytes depends on external pH in a constant rate. […] Flow cytometry analyses include FITC intensity geometrical mean±SD presented as fold induction relative to background. n=9 in 3 independent experiments.
RBCs were exposed to external pH 5.4 for time durations of 10, 15, 30, 45 and 60 minutes. […] Flow cytometry analyses in terms of geometrical mean±SD are presented as fold induction relative the fluorescent intensity in the first group (10 min). No statistical difference is found in PIU rate for the different groups (p >0.05 by one way ANOVA, n=9 in 3 independent experiments).
Flow cytometry analyses include FITC intensity geometrical mean±SD presented as fold induction relative to background. n=9 in 3 independent experiments.
The cells were washed and divided into 2 groups, suspended in fresh solution of either pH 7.4 or pH 5.4. Cells from each group were incubated for durations of 10, 20, 30, 45 and 60 minutes, before being analyzed by flow cytometry. Results given in terms of geometrical mean±SD are presented as fold induction relative to cells analyzed immediately following exposure to low pH. n=8 in 2 independent experiments.
Following treatment the cells were washed in PBS-G and analyzed by flow cytometry. Results are presented as geometrical mean of FITC intensity±SD for 50,000 cells per sample.
This apparent saturation may be attributed to a competitive efflux process. […] Next, the cells were washed and re-suspended in fresh PBS-G of either pH 7.4 or 5.4, in the absence of dextran and then incubated at 37° C. for durations of 10, 20, 30, 45 and 60 minutes, followed by flow cytometry analysis (FIG. 32B). Dextran concentrations in RBCs incubated under physiological conditions (pH 7.4) suffers some gradual 20% decrease in value for 60 minutes after PIPC(P<0.05, one tail t-test). However, when RBCs are incubated at pH 5.4, the dextran concentration decline rapidly during the first 10 minutes, losing 50% of their initial value after 20 minutes and continue to decrease at a declining rate for the rest of the period monitored. It appears that long exposure of RBCs to low pH inflict some damage to the cells ability to retain the uptake cargo molecule (FIG. 32b). In an exemplary embodiment of the invention, RBCs are instead subjected to a pulsed treatment regime. […] In an exemplary embodiment of the invention, pulsed uptake is used to avoid/reduce causing leakage in cells and thus reduce efflux. Optionally or alternatively, cells that are sensitive to low pH can be treated. For example, one hour exposures separated by two hour rest periods may be used for siRNA transfection of pH-sensitive cells. […]

Dextran-FITC
initial PIU rate of adherent cultures, folds lower than suspended cells [1]: 2.5 folds
dextran concentration relative to HT29 cells [2]: 2 folds
external pH at which uptake is significant relative to autofluorescence at pH 7.4 ([3]; 70 kD dextran-FITC 10 μM, 5 minutes, P<0.05): < 6 pH
loss of initial intracellular dextran concentration after loading ([3]; incubated at pH 5.4, 37° C., after 20 minutes): 50%
decrease of intracellular dextran concentration after loading ([3]; incubated at pH 7.4, 37° C., 60 minutes after 10 minutes loading at pH 5.4): 20%
intracellular concentration after three cycles of 10 minutes exposure versus one exposure of 30 minutes ([3]; low pH solution, cycles separated by washing and 10 minutes in PBS-G): higher concentration
